Experimental data taken from US20100197789A1, “ANTI-OBESITY AGENT AND USE THEREOF” (National University Corporation Nagoya University, priority 2006, published 2010).

Experiments:
Type in all cases: in vivo, mouse
lean mice = assay: Food intake amount and body weight, 5 week-continuous oral administration, non-obese lean mice; details: lean mice (normal diet); oral 5 weeks; (±)-baclofen 5 mg/kg/day, SKF97541 0.3 mg/kg/day, 3-APPA 5 mg/kg/day
Procedure: (§1) 5 week-old male C57BL/6N mice (body weight 17 to 20 g, CLEA Japan, Inc.) were purchased and individually fed in tip cages. To the mice, normal pellet diet (CE-2) was administered under free water intake and free food intake. A body weight and a food intake amount over 24 hours were measured every day from the start of feeding. On day 3 after the start of feeding, blood was taken from an orbit after 6 hour-fasting and a blood glucose level and a blood insulin concentration were measured. The mice were divided into a control group and a baclofen treated group (10 mice per each group) so that a body weight, a 24 hour-food intake amount, a blood glucose level, and a blood insulin concentration were equal, and diet induced-obesity (DIO) was started to be induced by administration of high fat diet (High Fat Diet 32, energy fat ratio 60%, CLEA Japan, Inc.) (DIO mice). At the same time as the start of administering the high fat diet, (±)-baclofen was dissolved in drinking water and 5 week-continuous oral administration was started in a dosage of 5 mg per 1 kg of a body weight in 1 day (5 mg/kg/day). A food intake amount and a body weight were measured over time during the 5 week-administration period. (±)-baclofen (5 mg/kg/day) was orally administered also to C57BL/6N mice (lean mice) that are non-obese mice to which normal diet was administered in the same manner as described above, and a food intake amount and a body weight were measured over time.
(§2) 5 week-old male C57BL/6N mice (body weight 17 to 20 g, CLEA Japan, Inc.) were purchased and individually fed in tip cages. Normal pellet diet (CE-2) was administered to the mice under free water intake and free food intake. A body weight and a food intake amount over 24 hours were measured every day from the start of feeding. On day 3 after the start of feeding, blood was taken from an orbit after 6 hour-fasting and a blood glucose level and a blood insulin concentration were measured. The mice were divided into a control group, an SKF97541 treated group and a 3-APPA treated group (10 mice per each group) so that a body weight, a 24 hour-food intake amount, a blood glucose level, and a blood insulin concentration were equal, and diet induced-obesity (DIO) was started to be induced by administration of high fat diet (High Fat Diet 32, energy fat ratio 60%, CLEA Japan, Inc.) (DIO mice). At the same time as the start of administering the high fat diet, SKF97541 (0.3 mg/kg/day) or 3-APPA (5 mg/kg/day) was dissolved in drinking water and 5 week-continuous oral administration was started. A food intake amount and a body weight were measured over time during the 5 week-administration period. SKF97541 (0.3 mg/kg/day) or 3-APPA (5 mg/kg/day) was orally administered also to C57BL/6N mice (lean mice) to which normal diet was administered in the same manner as described above, and a food intake amount and a body weight were measured over time.

DIO mice [1] = assay: Fasting blood glucose, HbA1c, blood insulin, plasma leptin and adiponectin after 5-week administration, DIO mice; details: (±)-baclofen 5, SKF97541 0.3, 3-APPA 5 mg/kg/day, vs control; for fasting blood glucose level / fasting blood insulin concentration: 6 hour-fasting after 5 weeks oral; for HbA1c value: after 5 weeks oral
Procedure: The blood glucose level was measured by a glucose analyzer Antisense (HORIBA, Ltd.) promptly after taking blood from an orbit. HbA1c was measured by a glycohemoglobin analyzer HLC-723 GHbV (manufactured by TOSOH Corporation) after preserving blood at −80° C.
After taking blood from an orbit by using a hematocrit tube coated with heparin, blood was centrifuged at 3500 rpm at 4° C. for 15 minutes, and plasma was preserved at −80° C. The plasma concentrations of insulin, leptin and adiponectin were measured by the ELISA method (levis insulin kit (mouse): Shibayagi Co., Ltd., Morinaga Leptin assay kit: Morinaga Institute of Biological Science, Inc., Mouse/rat adiponectin ELISA kit: OTSUKA Pharmaceutical Co., Ltd.).
(±)-baclofen (5 mg/kg/day), SKF97541 (0.3 mg/kg/day) or 3-APPA (5 mg/kg/day) was orally administered to DIO mice for 5 weeks according to the above described method, and then blood was taken from an orbit after 6 hour-fasting and a blood glucose level, an HbA1c value and a blood insulin concentration were measured.
(±)-baclofen (5 mg/kg/day) was orally administered to DIO mice for 5 weeks according to the above described method, and then, blood was taken from an orbit after 6 hour-fasting, and a plasma leptin concentration and a plasma adiponectin concentration were measured. The DIO mice were sacrificed by cervical luxation after the end of the 5-week administration, and then epididymal white adipose tissues and subcutaneous white adipose tissues were surgically removed, and after measuring the weights, they were fixed in 4% formaldehyde. The epididymal white adipose tissues were cut out to prepare a section with a thickness of 8 μm and subjected to Hematoxylin-Eosin stain (H-E stain) and a form (size) of a fat cell was examined by using an image analysis system, Neurolucida (MicroBrightField Japan, Inc.).

DIO mice [2] = assay: Food intake amount and body weight, 5 week-continuous oral administration, diet-induced obese (DIO) mice; details: (±)-baclofen 5 mg/kg/day, SKF97541 0.3 mg/kg/day, 3-APPA 5 mg/kg/day; for body weight increase / food intake amount: DIO mice (high fat diet), oral in drinking water 5 weeks; for time after start of administration from which body weight increase suppression was significant / time after start of administration from which food intake suppression was significant: DIO mice, continued until 5 weeks
Procedure: as §1, §2

db/^+m mice = assay: Food intake amount and body weight, 5 week-continuous oral administration, non-obese db/+m mice; details: SKF97541 10×10^−6 M, 3-APPA 100×10^−6 M in drinking water
Procedure: 5 week-old male C57BL/KsJ-db/^+m mice (db/^+m mice: body weight 19 to 23 g, Japan SLC, Inc.) were purchased and individually fed in tip cages. To the db/^+m mice, normal pellet diet (CE-2) was administered under free water intake and free food intake. A body weight and a food intake amount over 24 hours were measured every day from the start of feeding. On day 3 after the start of feeding, blood was taken from an orbit after 6 hour-fasting and a blood glucose level and a blood insulin concentration were measured. The db/^+m mice were divided into two groups (10 mice per each group) so that a body weight, a 24 hour-food intake amount, a blood glucose level, and a blood insulin concentration were equal, and defined to be a control group and a baclofen treated group. After division into the groups, from day 5 after the start of feeding, (±)-baclofen was dissolved in drinking water and 5 week-continuous oral administration was started in the baclofen treated group. (±)-baclofen was dissolved in drinking water at a concentration of 2.7 mg/dl used in the high concentration treated group in the experiment of db/db mice. A food intake amount and a body weight of the db/^+m mice were measured over time, and a rectal temperature was measured 5 weeks after the start of the administration. Blood was taken after the 5-week administration of (±)-baclofen, and the db/^+m mice were sacrificed by cervical luxation.
5 week-old male C57BL/KsJ-db/db mice (db/db mice: body weight 19 to 25 g, Japan SLC, Inc.) were purchased and individually fed in tip cages. Normal pellet diet (CE-2) was administered to the db/db mice under free water intake and free food intake. A body weight and a food intake amount over 24 hours were measured every day from the start of feeding. On day 3 after the start of feeding, blood was taken from an orbit after 6 hour-fasting and a blood glucose level and a blood insulin concentration were measured. The db/db mice were divided into three groups (10 mice per each group) so that a body weight, a 24 hour-food intake amount, a blood glucose level, and a blood insulin concentration were equal and defined to be a control group, an SKF97541 treated group and a 3-APPA treated group. SKF97541 and 3-APPA were dissolved in drinking water at respective concentrations of 10×10^−6 M and 100×10^−6 M, and continuously orally administered for 5 weeks, and a food intake amount and a body weight were measured over time during the administration period. SKF97541 (10×10^−6 M) or 3-APPA (100×10^−6M) was dissolved in drinking water and orally administered also to db/^+m mice, and a food intake amount and a body weight were measured over time in the same manner.

db/db mice = assay: Food intake amount and body weight, 5 week-continuous oral administration in drinking water, db/db mice; details: SKF97541 10×10^−6 M, 3-APPA 100×10^−6 M in drinking water; for time after start of administration from which body weight increase suppression was significant / time after start of administration from which cumulative food intake suppression was significant: continued until end of experiment; for body weight increase / cumulative food intake amount: oral, 5 weeks

Row | Compound | body weight (lean mice) | food intake amount (lean mice) | fasting blood glucose level (DIO mice [1]) | fasting blood insulin concentration (DIO mice [1]) | HbA1c value (DIO mice [1]) | body weight increase (DIO mice [2]) | food intake amount (DIO mice [2]) | time after start of administration from which body weight increase suppression was significant (DIO mice [2]) [week] | time after start of administration from which food intake suppression was significant (DIO mice [2]) [week] | body weight (db/^+m mice) | food intake amount (db/^+m mice) | time after start of administration from which body weight increase suppression was significant (db/db mice) [week] | time after start of administration from which cumulative food intake suppression was significant (db/db mice) [weeks] | body weight increase (db/db mice) | cumulative food intake amount (db/db mice)
1 | CP(=O)(O)CCCN [SKF97541, 3-aminopropyl-(methyl)phosphinic acid] | did not give significant effects | did not give significant effects | significant decreases | significant decreases | significant decreases | significantly suppressed | significantly suppressed | 1 | 1 | did not give significant effects | did not give significant effects | 1 | 2 | significantly suppressed | significantly suppressed
2 | NCCCP(=O)(O)O [3-APPA, 3-aminopropylphosphonic acid] | did not give significant effects | did not give significant effects | significant decreases | significant decreases | significant decreases | significantly suppressed | significantly suppressed | 1 | 1 | did not give significant effects | did not give significant effects | 1 | 1 | significantly suppressed | significantly suppressed
